Assay results as given in patent US5686426A, “Dicarboxymethylated glycolipid derivatives as cell adhesion inhibitors” (Bristol-Myers Squibb Company, priority 1994, dated 1997).

Tests used:
[1] = tested on: P-selectin; assay: P-Selectin Adhesion Receptor Binding (cell-free ELISA, inhibition of P-selectin binding to immobilized sulfatides)
Source text: P-selectin (GMP140, granule membrane protein-140, PADGEM, or CD62) is a calcium-dependent transmembrane protein found in alpha granules of endothelial cells and platelets. It is an inducible selectin produced on activated endothelium and platelets which recognize alpha(2-3)sialylated and alpha(1-3)fucosylated lactosaminoglycans which include the sequence, Lewis x (Zhou et al., J. Cell. Biol., (1991) 115 (2): 557-564) and sulfatides (3-sulfated galactosyl ceramides, Aruffo, et al., Cell (1991) 67: 35-44). P-selectin may be responsible for the initial adhesion events between endothelium and neutrophils as evidenced by leukocyte rolling induced by P-selectin in flow cells (Lawrence, M., and T. Springer, Cell (1991) 65: 859-873).
Based on the availability of soluble forms of P-selectin prepared as described by Aruffo, A., et al., Cell, 67, 35-44 (1991), a binding ELISA based assay modified from Foxall, et al., J., Cell Biol., 117, 895-902 (1992) was developed to measure inhibitors of P-selectin binding to immobilized sulfatides. Such inhibitors were tested in the assay described below.
0.1 ml of sulfatide (SIGMA) at 1 μg/ml in MeOH was added to 48 wells of a 96-well ELISA plate (ProBind, Falcon) and allowed to dry overnight at room temperature. Another set of 48 wells were incubated with the solvent (methanol, Fisher Scientific). The next day the antigen/solvent coated plates were blocked for 1.5 hours at room temperature with 5% BSA (ICN) in buffer containing 20 mM Hepes, 1 mM CaCl2 and 0.15M NaCl, pH 8.0. Wild type P-selectin was first mixed with HRP-conjugated goat anti-human IgG (1:5000 dilution, Fisher Scientific), and incubated for 30 minutes at 37° C. in buffer containing 20 mM Hepes, 0.15M NaCl, 1% BSA and 1 mM CaCl2, pH 8.0 prior to addition to the BSA blocked plates. Following the 30 minute preincubation, the fusion protein-HRP conjugate immunocomplexes were incubated on the blocked antigen coated plates for 45 minutes at 37° C. in the presence or absence of the test compounds and then washed to remove any unbound proteins. Bound complexes were detected by addition of substrate buffer (95 mM NaOAc.3H2 O, 5 mM citric acid monohydrate, 1.4 mM urea/H2 O2) containing 3, 3', 5, 5' Tetramethylbenzidine (SIGMA). Reactions were stopped by the addition of 3N sulfuric acid and the absorbance read on an ELISA reader at dual wavelengths 450 and 630 nm. The efficacy of these compounds was compared to that of sulfatide (positive control) or to MeOH (negative control). The data is obtained as percent inhibition of specific binding [formula] and a plot of dose vs. percent inhibition of Rg binding is generated in which IC50 (μM) is calculated and reported as cell free data in Table 1.

[2] = tested on: reverse passive Arthus reaction in rats; assay: Reverse Passive Arthus Reaction in Rats (RPA); format: in vivo, Male Sprague Dawley rats; parameters: key: NS: no significant inhibition at 3 mg; conditions: rat, single IV dose 3 mg, 4 hours; for RPA VP % Inhib. (vascular permeability): 125I-BSA plasma extravasation into skin; for RPA MPO % Inhib. (myeloperoxidase, neutrophil accumulation): skin MPO activity
Source text: The reverse passive Arthus reaction in rats is a modification of the method by Mulligan et al., as described in J. Clin. Invest., (1991) 88: 1396-1406. This is an experimental model in which the interaction of antigen-antibody complexes and complement leads to a severe vasculitis that is associated with edema, induration, erythema and hemorrhage. The interaction between the antigen-antibody complexes and complement leads to a localized influx of neutrophils. These neutrophils release a variety of mediators that are associated with tissue damage and vascular permeability. The localized inflammatory reaction is measured using different techniques i.e., vascular permeability and neutrophil influx which is evaluated both biochemically and microscopically.
Male Sprague Dawley specific pathogen-free rats with jugular vein cannulae (280-320 g, Hill Top Labs, Pa.) are used in these studies. Animals are acclimated for at least 1 day and individually housed in stainless steel cages. The dorsal region of the rats is closely clipped 2 days prior to the experiments and divided into 4 sites on each side of the midline. Prior to all injections the rats are sedated with 0.4 ml per 300 gm rat of ketamine/rompun [1000 mg (10 ml) of ketamine HCL is mixed with 40 mg (2.0 ml) Rompun] administered IP and or inhalation anesthesia with metafane (methoxyflurane).
Bovin Serum Albumin (BSA) and rabbit polyclonal IgG rich in anti-BSA are purchased from Sigma Chemical Co. (St. Louis, Mo.). Radiolabelled ^125 I-BSA (spAct 1-5 μCi/μg) is purchased from Dupont NEN (Boston, Mass.).
Each rat is administered intradermal (ID) injection of (0.4 mg, 0.6 mg and 0.8 mg) anti-BSA in a volume of 100 μl per injection in normal saline. The ID injections are randomized near the mid dorsal region on both sides of the back bone. Immediately after the ID injections of the anti-BSA, the rats are administered intravenous (IV) injections of BSA (10 mg in 1.0 ml) in normal saline containing ^125 I labeled BSA (1 μCi/ml BSA or 5.0 μCi/kg body wt) for quantification of dermal vascular injury. Anti-inflammatory agents such as inhibitors of adhesion molecules of the present invention are administered IV at a single dose of 3 mg immediately after BSA. Four (4) hours after the IV injection of BSA, the rats are anesthetized with metafane and 2 to 3 ml of blood is withdrawn via the cannula into an anticoagulant containing (EDTA or Heparin) tube and plasma separated and saved for neutrophil and albumin quantitation. The rats are killed and the skin surrounding the injection site (15 mm diameter) is punched out and weighed. The skin samples and a fixed volume of plasma (0.1 to 1.0 ml) is analyzed in a gamma-counter for ^125 I content. Skin samples from the contralateral side are processed and analyzed for myeloperoxidase activity (MPO) as a measure of neutrophil accumulation. As needed, samples are also processed for histological evaluation of the reacted sites.
Vascular Permeability (VP)
The calculation of the plasma protein exudation into skin is made by determining the radioactivity in the tissue and relating this to the level of radioactive albumin in the blood at the time of sacrifice. […] [formula]
Percent inhibition of the test compound at 3 mg was determined as follows: [formula] Myeloperoxidase (MPO)
MPO is located in the azurophil granules of polymorphonuclear leukocytes (PMN). Because of its abundance in these cells (5% dry weight), this enzyme is used as a marker for tissue neutrophil content. For tissue MPO content, the method of Bradley, et al., was used as described in J. Invest. Dermatol. (1982) 78: 206-209. Biopsies from each treatment group were placed in plastic tubes (15×100 mm) containing 10 ml of 0.5% hexadecyltrimethylammonium bromide (HTAB)in 0.05M potassium phosphate buffer pH 6.0. The tissue was then homogenized with a Brinkmann Polytron homogenizer (10s). […]

| SMILES | IC50 [1] | RPA VP % Inhib. (vascular permeability) [2] | RPA MPO % Inhib. (myeloperoxidase, neutrophil accumulation) [2] |
| --- | --- | --- | --- |
| CCCCCCCCCCCCC/C=C/[C@@H](OC(=O)c1ccccc1)[C@H](CO[C@H]1O[C@H](COCC(=O)O)[C@H](OCC(=O)O)[C@H](OC(=O)c2ccccc2)[C@H]1OC(=O)c1ccccc1)NC(=O)CCCCCCCCCCCCCCC [Example 2, (2S,3R,4E)-3-Benzoyloxy-2-hexadecanoylamino-1-[2,3-di-O-benzoyl-4,6-di-O-carboxymethyl-α-D-galactopyranosyloxy]-4-octadecene] | 920 nM | > 73% | > 99% |
| CCCCCCCCCCCCC/C=C/[C@@H](OC(=O)c1ccccc1)[C@H](CO[C@@H]1O[C@H](COCC(=O)O)[C@H](OCC(=O)O)[C@H](OC(=O)c2ccccc2)[C@H]1OC(=O)c1ccccc1)NC(=O)CCCCCCCCCCCCCCC [Example 16, (2S,3R,4E)-2-Hexadecanoylamino-3-benzoyloxy-1-(4,6-di-O-carboxymethyl-2,3-di-O-benzoyl-β-D-galactopyranoside)-4-octadecene] | 3500 nM | NS | NS |
| CCCCCCCCCCCCC/C=C/[C@@H](OC(=O)c1ccccc1)[C@H](CO[C@@H]1O[C@H](COCC(=O)O)[C@H](OCC(=O)O)[C@H](OC(=O)c2ccccc2)[C@H]1O)NC(=O)CCCCCCCCCCCCCCC [Example 18, (2S,3R,4E)-3-Benzoyloxy-2-hexadecanoylamino-1-[3-O-benzoyl-4,6-di-O-carboxymethyl-β-D-galactopyranosyloxy]-4-octadecene] | < 30 nM | 73.6% | 98% |
| CCCCCCCCCCCCC/C=C/[C@@H](OC(=O)c1ccccc1)[C@H](CO[C@H]1O[C@H](COCC(=O)O)[C@H](OCC(=O)O)[C@H](O)[C@H]1OC(=O)c1ccccc1)NC(=O)CCCCCCCCCCCCCCC [Example 14, (2S,3R,4E)-3-Benzoyloxy-2-hexadecanoylamino-1-[2-O-benzoyl-4,6-di-O-carboxymethyl-α-D-galactopyranosyloxy]-4-octadecene] | 700 nM | 32% | 13% |
| CCCCCC/C=C/[C@@H](OC(=O)c1ccccc1)[C@H](CO[C@H]1O[C@H](COCC(=O)O)[C@H](OCC(=O)O)[C@H](OC(=O)c2ccccc2)[C@H]1OC(=O)c1ccccc1)NC(=O)CCCCCCCCC(=O)OC [Example 8, (2S,3R,4E)-3-Benzoyloxy-2-(9-methoxycarbonyl-nonanoylamino)-1-(2,3-di-O-benzoyl-4,6-di-O-carboxymethyl-α-D-galactopyranosyloxy)-4-undecene] | > 50000 nM | 9% | 22% |
